Test results taken from patent US12559464B2, “Quinazolinone dione compounds and uses thereof” (Edgewise Therapeutics, Inc., priority 2023, dated 2026).

Assays:
[1] = molecular target: T1, myosin ATPase, Porcine Ventricle myofibrils (Sus scrofa, UniProt P79293); experiment: Myofibril ATPase assay, porcine ventricle myofibrils; type: biochemical, porcine (Yucatan minipigs); conditions: concentration required to reduce myosin ATP-ase activity by 25%; Porcine Ventricle Prep pCa 25 GEOM_MEAN
T1 construct: Myofibrils from porcine cardiac muscle was isolated from the left ventricle of Yucatan minipigs; tissue Exemplar Genetics; host or cells: left ventricle of Yucatan minipigs, myofibrils
Summary of the method: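 Myofibrils from Yucatan minipig left ventricle; ADP production coupled via PK-LDH to NADH loss, read kinetically at 340 nm every 1.5–2 min for 75 min in PIPES/MgCl2 pH 7.0 buffer. Slopes normalized to vehicle and fit to 4-parameter logistic; values are concentrations giving 75% (inhibition) or 125% (activation) of vehicle activity.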

[2] = test system: myosin ATPase, Rabbit Psoas myofibrils; experiment: Myofibril ATPase assay, rabbit psoas (skeletal) myofibrils; type: biochemical; conditions: concentration required to reduce myosin ATP-ase activity by 25%; Rabbit Psoas Prep pCa 25 GEOM_MEAN
[3] = test system: myosin ATPase, Porcine Atria myofibrils; experiment: Myofibril ATPase assay, porcine atria myofibrils; type: biochemical; conditions: concentration required to reduce myosin ATP-ase activity by 25%; Porcine Atria Prep pCa 25 GEOM_MEAN

T1 sequence (P79293 whole entry): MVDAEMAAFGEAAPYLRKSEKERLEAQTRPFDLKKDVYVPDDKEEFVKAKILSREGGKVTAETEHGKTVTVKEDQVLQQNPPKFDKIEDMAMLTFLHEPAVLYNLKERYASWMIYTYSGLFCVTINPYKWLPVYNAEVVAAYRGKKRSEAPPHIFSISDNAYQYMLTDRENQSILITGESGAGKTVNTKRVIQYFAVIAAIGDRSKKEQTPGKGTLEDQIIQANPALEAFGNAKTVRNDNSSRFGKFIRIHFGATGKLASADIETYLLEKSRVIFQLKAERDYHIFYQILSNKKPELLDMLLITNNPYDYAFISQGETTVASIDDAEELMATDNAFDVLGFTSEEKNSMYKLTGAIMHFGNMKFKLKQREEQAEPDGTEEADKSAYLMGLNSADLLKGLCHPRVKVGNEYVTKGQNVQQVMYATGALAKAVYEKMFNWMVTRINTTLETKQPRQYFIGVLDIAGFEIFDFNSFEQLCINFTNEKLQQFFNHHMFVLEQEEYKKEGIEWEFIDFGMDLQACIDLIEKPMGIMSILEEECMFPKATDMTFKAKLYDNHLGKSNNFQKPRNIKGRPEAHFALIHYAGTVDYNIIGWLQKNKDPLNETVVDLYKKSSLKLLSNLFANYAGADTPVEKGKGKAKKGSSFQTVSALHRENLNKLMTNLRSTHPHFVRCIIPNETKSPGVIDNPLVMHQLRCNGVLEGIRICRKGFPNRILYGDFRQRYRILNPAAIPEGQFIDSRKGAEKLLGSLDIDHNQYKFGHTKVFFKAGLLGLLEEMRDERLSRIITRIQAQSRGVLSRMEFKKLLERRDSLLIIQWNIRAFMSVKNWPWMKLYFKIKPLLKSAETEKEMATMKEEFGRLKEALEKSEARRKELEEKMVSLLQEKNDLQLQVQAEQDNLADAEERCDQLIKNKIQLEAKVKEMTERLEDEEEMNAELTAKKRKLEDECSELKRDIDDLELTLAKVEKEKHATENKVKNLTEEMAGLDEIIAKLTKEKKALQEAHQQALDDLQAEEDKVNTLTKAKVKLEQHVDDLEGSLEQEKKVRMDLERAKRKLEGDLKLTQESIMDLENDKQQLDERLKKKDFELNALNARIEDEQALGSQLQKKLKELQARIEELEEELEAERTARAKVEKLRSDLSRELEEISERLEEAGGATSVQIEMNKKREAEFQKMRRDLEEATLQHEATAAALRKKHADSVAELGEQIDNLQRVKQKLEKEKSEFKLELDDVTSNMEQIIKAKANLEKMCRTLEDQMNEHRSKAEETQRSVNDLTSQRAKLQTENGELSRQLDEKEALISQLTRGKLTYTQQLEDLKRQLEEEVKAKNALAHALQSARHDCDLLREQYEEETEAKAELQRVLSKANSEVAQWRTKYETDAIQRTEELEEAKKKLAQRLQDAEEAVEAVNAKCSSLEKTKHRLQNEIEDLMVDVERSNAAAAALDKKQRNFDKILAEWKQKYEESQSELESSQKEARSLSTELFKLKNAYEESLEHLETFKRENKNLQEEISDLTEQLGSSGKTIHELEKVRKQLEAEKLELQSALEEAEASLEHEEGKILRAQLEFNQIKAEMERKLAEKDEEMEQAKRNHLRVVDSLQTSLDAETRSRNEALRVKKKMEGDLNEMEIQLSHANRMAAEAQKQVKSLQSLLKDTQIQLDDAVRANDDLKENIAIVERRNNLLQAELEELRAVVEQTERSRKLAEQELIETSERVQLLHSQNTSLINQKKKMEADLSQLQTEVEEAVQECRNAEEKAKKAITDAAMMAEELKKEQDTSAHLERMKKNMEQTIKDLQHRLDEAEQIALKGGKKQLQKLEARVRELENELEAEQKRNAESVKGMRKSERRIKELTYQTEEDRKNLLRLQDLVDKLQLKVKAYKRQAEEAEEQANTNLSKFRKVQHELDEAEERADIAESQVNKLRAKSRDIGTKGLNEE

Row | Compound | Porcine Ventricle EC25 (Y75 value) [1] | Rabbit Psoas EC25 (Y75 value) [2] | Porcine Atria EC25 (Y75 value) [3]
1 | Cc1ccc2[nH]c(=O)n(CC(=O)N[C@@H](C)c3ccc(F)cc3F)c(=O)c2c1 [Compound 51, (S)-N-(1-(2,4-difluorophenyl)ethyl)-2-(6-methyl-2,4-dioxo-1,4-dihydroquinazolin-3(2H)-yl)acetamide] | 13.83 µM | 0.984 µM | 0.2427 µM
2 | C[C@H](NC(=O)Cn1c(=O)[nH]c2ccnc(O)c2c1=O)c1ccc(F)cc1F [Compound 59, (S)-N-(1-(2,4-difluorophenyl)ethyl)-2-(5-hydroxy-2,4-dioxo-1,4-dihydropyrido[4,3-d]pyrimidin-3(2H)-yl)acetamide] | 100 µM | 100 µM | 100 µM
3 | COc1nccc2[nH]c(=O)n(CC(=O)N[C@@H](C)c3ccc(F)cc3F)c(=O)c12 [Compound 65, (S)-N-(1-(2,4-difluorophenyl)ethyl)-2-(5-methoxy-2,4-dioxo-1,4-dihydropyrido[4,3-d]pyrimidin-3(2H)-yl)acetamide] | 100 µM | 8.499 µM | 3.241 µM
4 | COc1cccc2[nH]c(=O)n(CC(=O)N[C@@H](C)c3ccc(F)cc3F)c(=O)c12 [Compound 69, (S)-N-(1-(2,4-difluorophenyl)ethyl)-2-(5-methoxy-2,4-dioxo-1,4-dihydroquinazolin-3(2H)-yl)acetamide] | 100 µM | 1.147 µM | 21.1 µM
5 | CCC(NC(=O)Cn1c(=O)[nH]c2ccccc2c1=O)c1ccc(F)cc1F (stereo not drawn) [Compound 71, N-(1-(2,4-difluorophenyl)propyl)-2-(2,4-dioxo-1,4-dihydroquinazolin-3(2H)-yl)acetamide] | 53.2 µM | 3.86 µM | 12.67 µM
6 | C[C@H](NC(=O)Cn1c(=O)[nH]c2cccc(O)c2c1=O)c1ccc(F)cc1F [Compound 72, (S)-N-(1-(2,4-difluorophenyl)ethyl)-2-(5-hydroxy-2,4-dioxo-1,4-dihydroquinazolin-3(2H)-yl)acetamide] | 0.2524 µM | 0.019 µM | 0.1151 µM
7 | Cc1cccc2[nH]c(=O)n(CC(=O)N[C@@H](C)c3ccc(F)cc3F)c(=O)c12 [Compound 73, (S)-N-(1-(2,4-difluorophenyl)ethyl)-2-(5-methyl-2,4-dioxo-1,4-dihydroquinazolin-3(2H)-yl)acetamide] | 0.707 µM | 0.0495 µM | 0.1149 µM
8 | O=C(Cn1c(=O)[nH]c2ccccc2c1=O)NC(CO)c1ccc(F)cc1F (stereo not drawn) [Compound 87, N-(1-(2,4-difluorophenyl)-2-hydroxyethyl)-2-(2,4-dioxo-1,4-dihydroquinazolin-3(2H)-yl)acetamide] | 100 µM | 0.817 µM | 5.405 µM
9 | C[C@H](NC(=O)Cn1c(=O)[nH]c2ncncc2c1=O)c1ccc(F)cc1F [Compound 95, (S)-N-(1-(2,4-difluorophenyl)ethyl)-2-(2,4-dioxo-1,4-dihydropyrimido[4,5-d]pyrimidin-3(2H)-yl)acetamide] | 100 µM | 100 µM | 100 µM
10 | C[C@H](NC(=O)Cn1c(=O)[nH]c2cncnc2c1=O)c1ccc(F)cc1F [Compound 96, (S)-N-(1-(2,4-difluorophenyl)ethyl)-2-(2,4-dioxo-1,4-dihydropyrimido[5,4-d]pyrimidin-3(2H)-yl)acetamide] | 100 µM | 100 µM | 100 µM
11 | CC(NC(=O)Cn1c(=O)[nH]c2ccccc2c1=O)c1ccc(F)cn1 (stereo not drawn) [Compound 106, 2-(2,4-dioxo-1,4-dihydroquinazolin-3(2H)-yl)-N-(1-(5-fluoropyridin-2-yl)ethyl)acetamide] | 100 µM | 72.241 µM | 100 µM
12 | COc1ccc2c(=O)n(CC(=O)N[C@@H](C)c3ccc(F)cc3F)c(=O)[nH]c2c1 [Compound 142, (S)-N-(1-(2,4-difluorophenyl)ethyl)-2-(7-methoxy-2,4-dioxo-1,4-dihydroquinazolin-3(2H)-yl)acetamide] | 100 µM | 100 µM | 100 µM
13 | C[C@H](NC(=O)Cn1c(=O)[nH]c2cc(F)ccc2c1=O)c1ccc(F)cc1F [Compound 143, (S)-N-(1-(2,4-difluorophenyl)ethyl)-2-(7-fluoro-2,4-dioxo-1,4-dihydroquinazolin-3(2H)-yl)acetamide] | 100 µM | 9.2 µM | 2.081 µM
14 | C[C@H](NC(=O)Cn1c(=O)[nH]c2cccc(F)c2c1=O)c1ccc(F)cc1F [Compound 154, (S)-N-(1-(2,4-difluorophenyl)ethyl)-2-(5-fluoro-2,4-dioxo-1,4-dihydroquinazolin-3(2H)-yl)acetamide] | 1.15 µM | 0.11 µM | 0.1312 µM
15 | C[C@H](NC(=O)Cn1c(=O)[nH]c2ccc(F)cc2c1=O)c1ccc(F)cc1F [Compound 155, (S)-N-(1-(2,4-difluorophenyl)ethyl)-2-(6-fluoro-2,4-dioxo-1,4-dihydroquinazolin-3(2H)-yl)acetamide] | 0.1805 µM | 0.073 µM | 0.0623 µM
16 | C[C@@H](NC(=O)Cn1c(=O)[nH]c2ccccc2c1=O)c1ccc(F)cc1F [Compound 166, (R)-N-(1-(2,4-difluorophenyl)ethyl)-2-(2,4-dioxo-1,4-dihydroquinazolin-3(2H)-yl)acetamide] | 100 µM | 100 µM | 100 µM
17 | CC(NC(=O)Cn1c(=O)[nH]c2ccccc2c1=O)c1ccc(F)cc1F (stereo not drawn) [Compound 169, N-(1-(2,4-difluorophenyl)ethyl)-2-(2,4-dioxo-1,4-dihydroquinazolin-3(2H)-yl)acetamide] | 31.6 µM | 0.494 µM | 2.407 µM
18 | CC(NC(=O)Cn1c(=O)[nH]c2ccccc2c1=O)c1ccncc1 (stereo not drawn) [Compound 213, 2-(2,4-dioxo-1,4-dihydroquinazolin-3(2H)-yl)-N-(1-(pyridin-4-yl)ethyl)acetamide] | 100 µM | 100 µM | 100 µM
19 | CC(NC(=O)Cn1c(=O)[nH]c2ccccc2c1=O)c1cncnc1 (stereo not drawn) [Compound 214, 2-(2,4-dioxo-1,4-dihydroquinazolin-3(2H)-yl)-N-(1-(pyrimidin-5-yl)ethyl)acetamide] | 100 µM | 100 µM | 100 µM
20 | CC(NC(=O)Cn1c(=O)[nH]c2ccccc2c1=O)c1cnccn1 (stereo not drawn) [Compound 215, 2-(2,4-dioxo-1,4-dihydroquinazolin-3(2H)-yl)-N-(1-(pyrazin-2-yl)ethyl)acetamide] | 45.3 µM | 100 µM | 23.9 µM
21 | C[C@H](NC(=O)Cn1c(=O)[nH]c2cnccc2c1=O)c1ccc(F)cc1F [Compound 301, (S)-N-(1-(2,4-difluorophenyl)ethyl)-2-(2,4-dioxo-1,4-dihydropyrido[3,4-d]pyrimidin-3(2H)-yl)acetamide] | 100 µM | 5.422 µM | 79 µM
22 | C[C@H](NC(=O)Cn1c(=O)[nH]c2ncccc2c1=O)c1ccc(F)cc1F [Compound 302, (S)-N-(1-(2,4-difluorophenyl)ethyl)-2-(2,4-dioxo-1,4-dihydropyrido[2,3-d]pyrimidin-3(2H)-yl)acetamide] | 100 µM | 100 µM | 100 µM
23 | C[C@H](NC(=O)Cn1c(=O)[nH]c2cccnc2c1=O)c1ccc(F)cc1F [Compound 303, (S)-N-(1-(2,4-difluorophenyl)ethyl)-2-(2,4-dioxo-1,4-dihydropyrido[3,2-d]pyrimidin-3(2H)-yl)acetamide] | 100 µM | 23 µM | 100 µM
24 | CC(C)[C@H](N)C(=O)OCn1c(=O)n(CC(=O)N[C@@H](C)c2ccc(F)cc2F)c(=O)c2cc(F)ccc21 [Compound 401, (3-(2-(((S)-1-(2,4-difluorophenyl)ethyl)amino)-2-oxoethyl)-6-fluoro-2,4-dioxo-3,4-dihydroquinazolin-1(2H)-yl)methyl L-valinate] | 100 µM | 6.978 µM | 46.5 µM
25 | COCn1c(=O)n(CC(=O)N[C@@H](C)c2ccc(F)cc2F)c(=O)c2cc(F)ccc21 [Compound 402, (S)-N-(1-(2,4-difluorophenyl)ethyl)-2-(6-fluoro-1-(methoxymethyl)-2,4-dioxo-1,4-dihydroquinazolin-3(2H)-yl)acetamide] | 100 µM | 100 µM | 100 µM
